# Measurements taken from patent publication US20240409482A1, “Novel Compound and Organic Light Emitting Device Comprising the Same” (LG Chem, Ltd., priority 2022, published 2024).
# Assay: Solubility measurement in cyclohexanone
# Format: physicochemical
# Parameters: key to Solubility (1.3 wt %): “O” means that the compound was easily dissolved in cyclohexanone; “A” means that the compound was dissolved in cyclohexanone at 80° C.; “X” means that the compound is not soluble in cyclohexanone
# Conditions: cyclohexanone, concentration of 1.3 wt %, room temperature
# Protocol: It was confirmed whether each of Compounds 1 to 14, Compound A and Compound B prepared in Preparation Examples could be dissolved in cyclohexanone at a concentration of 1.3 wt % at 25° C., and the results are shown in Table 1 below. At this time, “O” means that the compound was easily dissolved in cyclohexanone, “A” means that the compound was dissolved in cyclohexanone at 80° C., and “X” means that the compound is not soluble in cyclohexanone.
row,Structure (SMILES),"Solubility in cyclohexanone, result in words"
1,c1ccc(-c2c3ccccc3c(-c3ccc(-c4ccc5cc(-c6ccc7cc(-c8c9ccccc9c(-c9ccccc9)c9ccccc89)ccc7c6)ccc5c4)cc3)c3ccccc23)cc1 [Compound A],could not be dissolved at room temperature
2,"c1ccc2c(-c3ccc(-c4c5ccccc5c(-c5ccc(-c6cccc7c(-c8cccc9ccc(-c%10ccc(-c%11c%12ccccc%12c(-c%12cccc%13ccccc%12%13)c%12ccccc%11%12)cc%10)cc89)cccc67)cc5)c5ccccc45)cc3)cccc2c1 [Compound B, reference compound]",could not be dissolved at room temperature

# Same assay, conditions: in cyclohexanone at a concentration of 1.3 wt % at 25° C.
row,Solubility (1.3 wt %),Structure (SMILES)
1,◯,c1ccc2c(-c3c4ccccc4c(-c4ccc(-c5ccc6ccc(-c7ccc8ccc(-c9c%10ccccc%10c(-c%10ccc%11oc%12ccccc%12c%11c%10)c%10ccccc9%10)cc8c7)cc6c5)cc4)c4ccccc34)cccc2c1 [Compound 9]
2,◯,c1cc(-c2ccc(-c3c4ccccc4c(-c4cccc5ccccc45)c4ccccc34)cc2)c2ccc(-c3ccc4c(-c5c6ccccc6c(-c6ccc7oc8ccccc8c7c6)c6ccccc56)cccc4c3)cc2c1 [Compound 12]
3,◯,c1ccc2cc(-c3c4ccccc4c(-c4ccc5ccc(-c6ccc7ccc(-c8c9ccccc9c(-c9ccc(-c%10cccc%11ccccc%10%11)cc9)c9ccccc89)cc7c6)cc5c4)c4ccccc34)ccc2c1 [Compound 10]
4,◯,c1cc(-c2ccc(-c3c4ccccc4c(-c4cccc5ccccc45)c4ccccc34)cc2)c2cc(-c3ccc4cccc(-c5c6ccccc6c(-c6ccc7oc8ccccc8c7c6)c6ccccc56)c4c3)ccc2c1 [Compound 8]
5,X,c1ccc(-c2c3ccccc3c(-c3ccc(-c4ccc5cc(-c6ccc7cc(-c8c9ccccc9c(-c9ccccc9)c9ccccc89)ccc7c6)ccc5c4)cc3)c3ccccc23)cc1 [Compound A]
6,Δ,"c1ccc2c(-c3ccc(-c4c5ccccc5c(-c5ccc(-c6cccc7c(-c8cccc9ccc(-c%10ccc(-c%11c%12ccccc%12c(-c%12cccc%13ccccc%12%13)c%12ccccc%11%12)cc%10)cc89)cccc67)cc5)c5ccccc45)cc3)cccc2c1 [Compound B, reference compound]"
7,◯,c1ccc2cc(-c3c4ccccc4c(-c4ccc(-c5cccc6cc(-c7ccc8c(-c9c%10ccccc%10c(-c%10ccc%11ccccc%11c%10)c%10ccccc9%10)cccc8c7)ccc56)cc4)c4ccccc34)ccc2c1 [Compound 11]

# The next lines start with the compound.
row,Structure (SMILES),Solubility (1.3 wt %)
1,c1ccc2cc(-c3ccc(-c4c5ccccc5c(-c5cccc6ccc(-c7ccc8cccc(-c9c%10ccccc%10c(-c%10ccc%11ccccc%11c%10)c%10ccccc9%10)c8c7)cc56)c5ccccc45)cc3)ccc2c1 [Compound 2],◯
2,c1cc(-c2cccc3ccc(-c4ccc5cccc(-c6c7ccccc7c(-c7ccc8oc9ccccc9c8c7)c7ccccc67)c5c4)cc23)cc(-c2c3ccccc3c(-c3ccc4ccccc4c3)c3ccccc23)c1 [Compound 7],◯
3,c1cc(-c2ccc(-c3c4ccccc4c(-c4cccc5ccccc45)c4ccccc34)cc2)c2cc(-c3ccc4cccc(-c5c6ccccc6c(-c6cccc7oc8ccccc8c67)c6ccccc56)c4c3)ccc2c1 [Compound 6],◯
4,c1ccc2cc(-c3c4ccccc4c(-c4ccc(-c5cccc6ccc(-c7ccc8cccc(-c9c%10ccccc%10c(-c%10ccc%11ccccc%11c%10)c%10ccccc9%10)c8c7)cc56)cc4)c4ccccc34)ccc2c1 [Compound 1],◯
5,c1ccc2cc(-c3c4ccccc4c(-c4cccc5ccc(-c6ccc7cccc(-c8c9ccccc9c(-c9ccc(-c%10cccc%11ccccc%10%11)cc9)c9ccccc89)c7c6)cc45)c4ccccc34)ccc2c1 [Compound 3],◯
6,c1cc(-c2cccc3ccc(-c4ccc5cccc(-c6c7ccccc7c(-c7ccc8ccccc8c7)c7ccccc67)c5c4)cc23)cc(-c2c3ccccc3c(-c3ccc4ccccc4c3)c3ccccc23)c1 [Compound 5],◯
7,c1cc(-c2cccc3ccc(-c4ccc5cccc(-c6c7ccccc7c(-c7ccc8ccccc8c7)c7ccccc67)c5c4)cc23)cc(-c2c3ccccc3c(-c3cccc4ccccc34)c3ccccc23)c1 [Compound 4],◯
